This data set can be described thus: Dynamic Vapor Sorption (DVS), hygroscopicity. The data set is classed as physicochemical. To be noted: for hygroscopicity (in words): from DVS weight increase at 80% RH; for weight increase (DVS): at 80% RH, 25±1° C. The method, then:
Dynamic Vapor Sorption (DVS) was performed by using Intrinsic DVS (Surface Measurement Systems, UK). A sample was weighed in an amount of 20-30 mg and was placed in a sample chamber. The measurement was performed at DMDT mode when the temperature of the sample chamber was maintained at 25±1° C.

“Also recorded” adds a separate entry of the source.

With `C[C@@H](N)COc1ccc(-c2cnc3ccc(N[C@H](C)c4cccc(F)c4)nn23)cc1` [crystalline form A of Compound 1 free base] [3-{4-[(2R)-2-aminopropoxy]phenyl}-N-[(1R)-1-(3-fluorophenyl)ethyl]imidazo[1,2-b]pyridazin-6-amine], the “crystalline form (XRPD) of the sample before and after the DVS test” value (“crystalline form (XRPD)” below) is “did not change”; the “hygroscopicity (in words)” value was “almost no hygroscopicity; also recorded: very low or nearly no hygroscopicity”.
On to `C[C@@H](N)COc1ccc(-c2cnc3ccc(N[C@H](C)c4cccc(F)c4)nn23)cc1` [crystalline form B of Compound 1 adipate, 3-{4-[(2R)-2-aminopropoxy]phenyl}-N-[(1R)-1-(3-fluorophenyl)ethyl]imidazo[1,2-b]pyridazin-6-amine], for which the “weight increase (DVS)” value is given as “about 8.2%” and the “hygroscopicity (in words)” value is given as “has hygroscopicity”.
On to `C[C@@H](N)COc1ccc(-c2cnc3ccc(N[C@H](C)c4cccc(F)c4)nn23)cc1` [crystalline form B of Compound 1 free base] [3-{4-[(2R)-2-aminopropoxy]phenyl}-N-[(1R)-1-(3-fluorophenyl)ethyl]imidazo[1,2-b]pyridazin-6-amine], for which the “crystalline form (XRPD)” value is “changed”; the “hygroscopicity (in words)” value is on record as “has hygroscopicity”.
In the case of `C[C@@H](N)COc1ccc(-c2cnc3ccc(N[C@H](C)c4cccc(F)c4)nn23)cc1` [crystalline form C of Compound 1 adipate, 3-{4-[(2R)-2-aminopropoxy]phenyl}-N-[(1R)-1-(3-fluorophenyl)ethyl]imidazo[1,2-b]pyridazin-6-amine], the “weight increase (DVS)” value is recorded as “about 1%” and the “hygroscopicity (in words)” value is “low hygroscopicity”.
With `C[C@@H](N)COc1ccc(-c2cnc3ccc(N[C@H](C)c4cccc(F)c4)nn23)cc1` [crystalline form C of Compound 1 free base] [3-{4-[(2R)-2-aminopropoxy]phenyl}-N-[(1R)-1-(3-fluorophenyl)ethyl]imidazo[1,2-b]pyridazin-6-amine], the “crystalline form (XRPD)” value was “no crystalline form change”; the “hygroscopicity (in words)” value is on record as “has hygroscopicity”.
Regarding `C[C@@H](N)COc1ccc(-c2cnc3ccc(N[C@H](C)c4cccc(F)c4)nn23)cc1` [crystalline form D of Compound 1 adipate, 3-{4-[(2R)-2-aminopropoxy]phenyl}-N-[(1R)-1-(3-fluorophenyl)ethyl]imidazo[1,2-b]pyridazin-6-amine], the “hygroscopicity (in words)” value is reported as “low hygroscopicity”.
Consider `C[C@@H](N)COc1ccc(-c2cnc3ccc(N[C@H](C)c4cccc(F)c4)nn23)cc1` [crystalline form D of Compound 1 free base] [3-{4-[(2R)-2-aminopropoxy]phenyl}-N-[(1R)-1-(3-fluorophenyl)ethyl]imidazo[1,2-b]pyridazin-6-amine], for which the “crystalline form (XRPD)” value is “did not change”; the “weight increase (DVS)” value was found to be 2.896%; the “hygroscopicity (in words)” value is reported as “some hygroscopicity”.

For the origin of these results see patent US20240309007A1, “CRYSTALLINE FORMS OF 3-{4-[(2R)-2-AMINOPROPOXY]PHENYL}-N-[(1R)- 1-(3-FLUOROPHENYL) ETHYL]IMIDAZO[1,2-B]PYRIDAZIN-6-AMINE AND SALTS THEREOF” (ANHEART THERAPEUTICS (HANGZHOU) CO., LTD., priority 2021, published 2024).
